The target in experiment [1] is FPR2 (Homo sapiens (Human), UniProt P25090). Briefly: Agonistic activity (calcium FLIPR) in hFPR2-Aq-CHO cells. To be noted: FLIPR Calcium 5 dye fluorescence, agonistic response. In kind it is cell-based. On the procedure: (§1) Cells (hFPR1-Gα15-CHO or hFPR2-Aq-CHO) are suspended in 10 mL of respective complete medium (F12(1×) HAM media; 10% HI-FBS; 0.1 mg/ml Hygromycin B and 0.2 mg/ml Zeocin [for hFPR1 only]; 0.4 mg/mL Geneticin and 0.25 mg/ml Zeocin [for hFPR2-Aq only]) and viability is checked using Trypan Blue exclusion. After washing, the cells are plated at 10,000 cells per well in 40 μL complete medium in a 384-well sterile clear bottom black plate and incubated in a 5% CO2 incubator at 37° C. for 18 hours. Plating media is removed from each well by decanting and gentle tapping before 30 μL of 0.5× Calcium 5 dye solution (0.5×FLIPR Calcium 5 dye (Molecular devices, R8186)); HBSS; 20 mM HEPES; 2.5 mM Probenecid; 0.025% Pluronic F-127; pH adjusted to 7.4) is added to each well and the plate is then incubated at 37° C. for 30 minutes. For the assay the plate is equilibrated at room temperature for 10 minutes before placing it in the FLIPR. Compounds are dissolved in DMSO and serially diluted over an 11 point half log (3.16 fold) dilution (2 mM to 20 nM). Compounds are then diluted 1:50 in assay buffer (HBSS; 20 mM HEPES; 2.5 mM Probenecid; 0.05% gelatin; 0.1% BSA; pH adjusted to 7.4) just before performing the assay. Compounds are finally added to the respective wells of the cell plate (final assay concentration 10 μM to 100 pM) using the FLIPR (e.g. FLIPR-Tetra, Molecular Devices) and fluorescence readings are captured for 5 minutes. The increase in fluorescence from the basal reading in the presence of the compounds is compared with that of the control wells (wells having no compound) to calculate the activity of the compounds. The EC50 values of the compounds can be determined using e.g. Graph pad Prism software.
(§2) Assay Method for Measuring Agonistic Activity of Compounds in hFPR1-Gα15-CHO and hFPR2-Aq-CHO Cell
(§3) Cryo-vial containing 6×10^6 cells (hFPR1-Gα15-CHO or hFPR2-Aq-CHO) was thawed in a 37° C. water bath. Cells were suspended in 10 ml of respective complete growth media (F12(1×) HAM media (Gibco; Cat#11765); 10% HI-FBS (Gibco; Cat#10082); 0.1 mg/ml Hygromycin B (Invitrogen; Cat#10687-010) [for hFPR1 only]; 0.2 mg/ml Zeocin (Invitrogen; Cat#R25001) [for hFPR1 only]; 0.4 mg/ml Geneticin (Gibco; Cat#10131) [for hFPR2-Aq only]; 0.25 mg/ml Zeocin (Invitrogen; Cat#R25001) [for hFPR2-Aq only]) in a 15 ml centrifuge tube. The cell viability was checked with the help of Trypan Blue dye. Upon washing the cells, those were plated in a 384-well sterile clear bottom black plate (Greiner Bioone Cat#781091) so that, each well contained 10,000 cells in 40 μl complete growth media. The plate was incubated in a 5% CO2 incubator at 37° C. for 18 hours.
(§4) Before assay on the next day, the cell plating media was removed from each well of the plate by decanting and gentle tapping. 30 μl, 0.11 of 0.5× Calcium 5 dye solution (0.5×FLIPR Calcium 5 dye (Molecular devices Cat# R8186); HBSS (Invitrogen; Cat#14025); 20 mM HEPES (Sigma; Cat#H0887); 2.5 mM Probenecid (Sigma; Cat#P8761); 0.025% Pluronic F-127 (Sigma; Cat#P2443); pH adjusted to 7.4) was added to each well. The plate was then incubated at 37° C. for 30 minutes. Following which the plate was equilibrated at room temperature for 10 minutes before placing it in a 384 well FLIPR for assay. Compounds were dissolved in DMSO and serially diluted following 11 point half log (3.16 fold) dilution with a starting concentration of 2 mM (Final assay concentration 10 μM). Aliquots of above mentioned each dilution was mixed with assay buffer (HBSS (Invitrogen; Cat#14025); 20 mM HEPES (Sigma; Cat#H0887); 2.5 mM Probenecid (Sigma; Cat#P8761); 0.05% gelatin (Sigma; Cat#G1890); 0.1% BSA (Sigma; Cat#A3059); pH adjusted to 7.4) just before performing the assay. Compounds were added to the respective wells of the assay ready cell plate with the help of the FLIPR (FLIPR Tetra) and fluorescence readings were captured for 5 minutes to measure any agonistic response of the compounds. […]

For experiment [2], the target named is FPR1 (Homo sapiens (Human), UniProt P21462). Briefly: Agonistic activity (calcium FLIPR) in hFPR1-Gα15-CHO cells. In kind it is cell-based. Conditions: FLIPR Calcium 5 dye fluorescence, agonistic response. On the procedure: as §1, §2, §3, §4
Sequence of FPR1 (P21462 whole entry): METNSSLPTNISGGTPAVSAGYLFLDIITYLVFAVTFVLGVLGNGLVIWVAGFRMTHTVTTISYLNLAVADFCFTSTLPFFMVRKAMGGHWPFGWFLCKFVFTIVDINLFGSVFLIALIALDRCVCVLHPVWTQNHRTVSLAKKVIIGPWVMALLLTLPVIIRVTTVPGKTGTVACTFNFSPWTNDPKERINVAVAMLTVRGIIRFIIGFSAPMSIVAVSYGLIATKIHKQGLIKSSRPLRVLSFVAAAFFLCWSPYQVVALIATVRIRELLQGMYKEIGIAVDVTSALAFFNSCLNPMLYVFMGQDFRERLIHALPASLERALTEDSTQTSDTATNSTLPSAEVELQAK

Sequence of FPR2 (P25090 whole entry): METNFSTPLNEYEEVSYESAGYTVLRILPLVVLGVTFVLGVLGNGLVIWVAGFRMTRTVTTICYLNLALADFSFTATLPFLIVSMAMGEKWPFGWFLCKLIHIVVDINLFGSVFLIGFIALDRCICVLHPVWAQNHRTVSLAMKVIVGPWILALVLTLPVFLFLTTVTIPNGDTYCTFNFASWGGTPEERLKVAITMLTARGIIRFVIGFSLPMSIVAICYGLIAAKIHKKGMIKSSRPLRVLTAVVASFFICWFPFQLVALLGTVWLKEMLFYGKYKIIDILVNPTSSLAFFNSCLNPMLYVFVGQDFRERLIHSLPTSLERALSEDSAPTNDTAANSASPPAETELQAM

`COc1ccc(C2C(NC(=O)Nc3ccc(Cl)cc3)CCCN2C)cc1` (single isomer, unassigned; dia1) [Example 89, dia1-1-(4-chlorophenyl)-3-(2-(4-methoxyphenyl)-1-methylpiperidin-3-yl)urea]: the EC50 in experiment [1] and in experiment [2] was 1 to 1000 nM throughout. With “ent1-1-(4-chlorophenyl)-3-(4-(2-fluoro-4-methoxyphenyl)piperidin-3-yl)urea [Example 45]”, the EC50 in experiment [1] is less than 1 nM; in experiment [2] it was 1 to 1000 nM. The matching figures for `O=C1C[C@@H](c2c(F)cc(OC(F)F)cc2F)[C@H](NC(=O)Nc2ccc(Cl)cc2)CN1` (racemic) [Example 70, rac-trans-1-(4-chlorophenyl)-3-(4-(4-(difluoromethoxy)-2,6-difluorophenyl)-6-oxopiperidin-3-yl)urea]: 1 to 1000 nM and 1 to 1000 nM. The matching figures for `COc1ccc(C2CC(=O)NCC2NC(=O)Nc2ccc(Cl)cc2)cc1` (single isomer, unassigned; ent1) [Example 76, trans-ent1-1-(4-chlorophenyl)-3-(4-(4-methoxyphenyl)-6-oxopiperidin-3-yl)urea]: less than 1 nM and 1 to 1000 nM. The corresponding values for `COc1ccc([C@@H]2CC(=O)N(CCO)C[C@H]2NC(=O)Nc2ccc(Cl)cc2)cc1` (racemic) [Example 32, rac-trans-1-(4-chlorophenyl)-3-(1-(2-hydroxyethyl)-4-(4-methoxyphenyl)-6-oxopiperidin-3-yl)urea] are less than 1 nM and 1 to 1000 nM. Consider `COc1ccc([C@@H]2CC(=O)N(C)C[C@H]2NC(=O)Nc2ccc(Cl)cc2)cc1` (stereo in doubt) [Example 11, trans-ent2-(4-chlorophenyl)-3-(4-(4-methoxyphenyl)-1-methyl-6-oxopiperidin-3-yl)urea], for which the EC50 in experiment [1] and in experiment [2] was 1 to 1000 nM in each case. For the compound `COc1ccc([C@@H]2CCN(C(=O)C(C)(F)F)C[C@H]2NC(=O)Nc2ccc(Cl)cc2)cc1` (racemic) [Example 14, rac-trans-1-(4-chlorophenyl)-3-(1-(2,2-difluoropropanoyl)-4-(4-methoxyphenyl)piperidin-3-yl)urea], the EC50 in experiment [1] and in experiment [2] was less than 1 nM throughout. Take `COc1ccc(C2CC(=O)N(CC(F)F)CC2NC(=O)Nc2ccc(Cl)cc2)c(F)c1` (single isomer, unassigned; ent2) [Example 62, trans-ent2-1-(4-Chlorophenyl)-3-[1-(2,2-difluoro-ethyl)-4-(2-fluoro-4-methoxy-phenyl)-6-oxo-piperidin-3-yl]-urea]: the 50% effective concentration (EC50) in experiment [1] and in experiment [2] was 1 to 1000 nM each time.

As to `O=C(Nc1ccc(Cl)cc1)NC1CN(C(=O)C2CC2)CCC1c1ccccc1` (single isomer, unassigned; ent2) [Example 84, trans-ent2-1-(4-chlorophenyl)-3-(1-(cyclopropanecarbonyl)-4-phenylpiperidin-3-yl)urea], the EC50 in experiment [1] and in experiment [2] was 1 to 1000 nM in each case.

With `O=C1CC(c2ccc(F)cc2F)C(NC(=O)Nc2ccc(Cl)cc2)CN1` (single isomer, unassigned; ent1) [Example 67, trans-ent1-1-(4-Chlorophenyl)-3-[4-(2,4-difluoro-phenyl)-6-oxo-piperidin-3-yl]-urea], the EC50 in experiment [1] and in experiment [2] was 1 to 1000 nM throughout. As to `COc1cc(F)c([C@@H]2CC(=O)NC[C@H]2NC(=O)Nc2ccc(Cl)s2)c(F)c1` (racemic) [Example 51, rac-trans-1-(5-chlorothiophen-2-yl)-3-(4-(2,6-difluoro-4-methoxyphenyl)-6-oxopiperidin-3-yl)urea], the EC50 in experiment [1] and in experiment [2] was 1 to 1000 nM throughout. For the compound `COc1ccc(C2C(NC(=O)Nc3ccc(Cl)cc3)CCCN2C)cc1` (single isomer, unassigned; dia2) [Example 90, dia2-1-(4-chlorophenyl)-3-(2-(4-methoxyphenyl)-1-methylpiperidin-3-yl)urea], the EC50 in experiment [1] and in experiment [2] was 1 to 1000 nM in each case. As to `CCc1ccc([C@@H]2CC(=O)NC[C@H]2NC(=O)Nc2ccc(Cl)cc2)cc1` (racemic) [Example 73, rac-trans-1-(4-chlorophenyl)-3-(4-(4-ethylphenyl)-6-oxopiperidin-3-yl)urea], the concentration for a half-maximal effect (EC50) in experiment [1] and in experiment [2] was 1 to 1000 nM throughout.

`COc1ccc([C@@H]2CCN(C(C)=O)C[C@H]2NC(=O)Nc2ccc(Cl)nc2)cc1` (racemic) [Example 19, rac-trans-1-(1-acetyl-4-(4-methoxyphenyl)piperidin-3-yl)-3-(6-chloropyridin-3-yl)urea]: the EC50 in experiment [1] and in experiment [2] was 1 to 1000 nM each time. For `COc1cc(F)c([C@@H]2CCNC[C@H]2NC(=O)Nc2ccc(Br)cc2)c(F)c1` (racemic) [Example 8, rac-trans-1-(4-bromophenyl)-3-(4-(2,6-difluoro-4-methoxyphenyl)piperidin-3-yl)urea], the figures for the EC50 in experiment [1] and in experiment [2] were less than 1 nM and 1 to 1000 nM, respectively. The corresponding values for `COc1cc(F)c([C@@H]2CC(=O)NC[C@H]2NC(=O)Nc2cc(C)ns2)c(F)c1` (racemic) [Example 55, rac-trans-1-[4-(2,6-Difluoro-4-methoxy-phenyl)-6-oxo-piperidin-3-yl]-3-(3-methyl-isothiazol-5-yl)-urea] are 1 to 1000 nM and 1 to 1000 nM. On to `O=C(Nc1ccc(Cl)cc1)NC1CNCCC1c1ccccc1` (single isomer, unassigned; ent2) [Example 81, trans-ent2-1-(4-chlorophenyl)-3-(4-phenylpiperidin-3-yl)urea], for which the EC50 in experiment [1] and in experiment [2] was 1 to 1000 nM each time. On to `O=C(Nc1ccc(Cl)cc1)NC1CNCCC1c1ccccc1` (single isomer, unassigned; ent1) [Example 80, trans-ent1-1-(4-chlorophenyl)-3-(4-phenylpiperidin-3-yl)urea], for which the EC50 in experiment [1] and in experiment [2] was 1 to 1000 nM throughout. Regarding `COc1cc(F)c(C2C(NC(=O)Nc3ccc(Cl)cc3)CCCN2C)c(F)c1` (single isomer, unassigned; dia2) [Example 88, dia2-1-(4-chlorophenyl)-3-(2-(2,6-difluoro-4-methoxyphenyl)-1-methylpiperidin-3-yl)urea], the EC50 in experiment [1] and in experiment [2] was 1 to 1000 nM in each case. Consider `COc1cc(F)c(C2CC(=O)NCC2NC(=O)Nc2ccc(Cl)cc2)c(F)c1` (single isomer, unassigned; ent2) [Example 50, trans-ent2-1-(4-chlorophenyl)-3-(4-(2,6-difluoro-4-methoxyphenyl)-6-oxopiperidin-3-yl)urea], for which the EC50 is less than 1 nM in experiment [1] and 1 to 1000 nM in experiment [2].

Regarding `CSc1ccc([C@@H]2CC(=O)NC[C@H]2NC(=O)Nc2ccc(Cl)cc2)cc1` (racemic) [Example 72, rac-trans-1-(4-chlorophenyl)-3-(4-(4-(methylthio)phenyl)-6-oxopiperidin-3-yl)urea], the EC50 in experiment [2] is 1 to 1000 nM.

By EC50 is commonly meant the midpoint of the concentration-response curve.

Values taken from US10265310B2, “6-membered cyclic amines or lactames substituted with urea and phenyl” (GRÜNENTHAL GMBH, priority 2016, dated 2019).
